US9062033B2, “Chemical compounds” (Rottapharm Biotech S.r.l., priority 2011, dated 2015)

How the values were obtained:
[1] = target: T1, human OX1 receptors (Homo sapiens, UniProt O43613); assay: Antagonistic activity against human OX1 receptor, [Ca2+]i fluorimetry (Fluo-4NW) in transfected CHO cells activated with orexin-A; type: cell-based; settings: for Kb: CHO cells transfected with human recombinant OX1, orexin-A 3 nM, pKb = co-logarithm of apparent dissociation constant, modified Cheng Prusoff; for pKb OX1: comparison table with compound of WO2011006960
T1 construct: expressed in transfected cells; host or cells: CHO cells
T1 sequence (O43613 1-425): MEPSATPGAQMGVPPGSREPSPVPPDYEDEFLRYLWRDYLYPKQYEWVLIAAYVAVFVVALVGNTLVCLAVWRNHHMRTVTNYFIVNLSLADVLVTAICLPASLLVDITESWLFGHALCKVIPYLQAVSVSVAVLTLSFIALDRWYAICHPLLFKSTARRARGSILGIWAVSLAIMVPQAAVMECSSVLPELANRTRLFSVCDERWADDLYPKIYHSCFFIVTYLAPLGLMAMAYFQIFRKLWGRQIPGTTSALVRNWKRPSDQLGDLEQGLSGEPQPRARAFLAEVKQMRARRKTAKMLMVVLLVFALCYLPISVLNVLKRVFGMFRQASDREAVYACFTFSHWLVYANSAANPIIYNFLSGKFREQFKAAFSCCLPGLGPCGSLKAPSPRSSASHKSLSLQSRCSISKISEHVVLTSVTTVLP
Method: (§1) In a typical experiment, the antagonistic activity against human OX1 and OX2 receptors is determined by using CHO e HEK-293 cells transfected with human recombinant OX1 and OX2 receptors respectively, seeded at density of 2 and 3×10^4 cells/well respectively in a 96 fluorimetry well plate. Thus the plate was loaded with the calcium dye (Fluo-4NW/probenecid in HBSS, Hepes 20 mM, pH 7.4; Invitrogen) at 37° C. for 60 min. Afterward the temperature was equilibrated at 22° C. for 15 min and the [Ca2+]i measured directly on the plate by using a fluorescent plate reader (CellLux Perkin Elmer).
(§2) Invention compounds were dissolved in DMSO, diluted in HBSS (DMSO, 0.3% final) and added to the wells. After 5 min CHO cells were activated with orexin-A, 3 nM while HEK-293 cells were activated with orexin-B, 10 nM.
(§3) The compounds, dissolved in DMSO and diluted in the medium (DMSO, 0.3% final), have been analysed in the 1 nM-1 μM concentration range (every concentration in duplicate). The antagonistic activity has been expressed as pKb (co-logarithm of the apparent dissociation constant calculated by using the modified Cheng Prusoff equation).
(§4) The results are expressed as percent of control specific […] response ((measured specific response/control specific agonist response)×100) obtained in the presence of the test compounds.
(§5) The IC50 values (concentration causing a half-maximal inhibition of the control specific agonist response) were determinated by non-linear regression analysis of the concentration curves generated with mean replicate values using hill equation curve fitting. The IC50 values are obtained by the arithmetical mean of at least two experiments. Compounds of the following example tested according to this example gave pKbs as follows: […]

[2] = target: T2, human OX2 receptors (Homo sapiens, UniProt O43614); assay: Antagonistic activity against human OX2 receptor, [Ca2+]i fluorimetry (Fluo-4NW) in transfected HEK-293 cells activated with orexin-B; type: cell-based; settings: for Kb: HEK-293 cells transfected with human recombinant OX2, orexin-B 10 nM, pKb = co-logarithm of apparent dissociation constant, modified Cheng Prusoff; for pKb OX2: comparison table with compound of WO2011006960
T2 construct: expressed in transfected cells; host or cells: HEK-293 cells
T2 sequence (O43614 1-444): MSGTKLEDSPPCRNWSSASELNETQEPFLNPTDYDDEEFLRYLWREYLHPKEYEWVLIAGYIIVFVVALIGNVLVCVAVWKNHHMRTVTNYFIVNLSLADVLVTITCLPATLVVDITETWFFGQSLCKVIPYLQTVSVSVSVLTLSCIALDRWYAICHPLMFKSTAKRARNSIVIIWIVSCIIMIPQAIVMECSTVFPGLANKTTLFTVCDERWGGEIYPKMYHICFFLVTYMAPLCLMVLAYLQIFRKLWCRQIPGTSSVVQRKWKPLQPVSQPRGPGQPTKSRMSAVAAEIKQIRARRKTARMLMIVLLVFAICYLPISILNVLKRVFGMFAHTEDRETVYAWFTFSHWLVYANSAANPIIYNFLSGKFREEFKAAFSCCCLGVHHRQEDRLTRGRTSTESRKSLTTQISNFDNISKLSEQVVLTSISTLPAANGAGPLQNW
Method: as §1, §2, §3, §4, §5

Kb [1]	Kb [2]	pKb OX1 [1]	pKb OX2 [2]	Compound
6.31 nM	5.01 nM			Cc1ccc(OCc2cc(F)cc(F)c2)c(C(=O)N2CC3(CC3)C[C@H]2CNc2ccc(C(F)(F)F)cn2)n1 [Compound 3o, (S)-(3-((3,5-difluorobenzyl)oxy)-6-methylpyridin-2-yl)(6-(((5-(trifluoromethyl)pyridin-2-yl)amino)methyl)-5-azaspiro[2.4]heptan-5-yl)methanone]
7.94 nM	79.4 nM			Cc1ccc(-c2ncccn2)c(C(=O)N2CC3(CC3)C[C@H]2CNc2nc3cc(Cl)ccc3o2)n1 [Compound E10, (S)-(6-(((5-chlorobenzo[d]oxazol-2-yl)amino)methyl)-5-azaspiro[2.4]heptan-5-yl)(6-methyl-3-(pyrimidin-2-yl)pyridin-2-yl)methanone]
2.51 nM	10 nM			Cc1ccc(-c2nccs2)c(C(=O)N2CC3(CC3)C[C@H]2CNc2ccc(C(F)(F)F)cn2)n1 [Compound 3q, (S)-(6-methyl-3-(thiazol-2-yl)pyridin-2-yl)(6-(((5-(trifluoromethyl)pyridin-2-yl)amino)methyl)-5-azaspiro[2.4]heptan-5-yl)methanone]
10 nM	7.94 nM			N#Cc1ccc(-c2ncccn2)c(C(=O)N2CC3(CC3)C[C@H]2CNc2ccc(C(F)(F)F)cn2)c1 [Compound E12, (S)-4-(pyrimidin-2-yl)-3-(6-(((5-(trifluoromethyl)-pyridin-2-yl)amino)methyl)-5-azaspiro[2.4]heptane-5-carbonyl)benzonitrile]
2.51 nM	12.6 nM			O=C(c1nc(C2CC2)ccc1-c1ccccc1)N1CC2(CC2)C[C@H]1CNc1ccc(C(F)(F)F)cn1 [Compound 3r, (S)-(6-cyclopropyl-3-phenylpyridin-2-yl)(6-(((5-(trifluoromethyl)pyridin-2-yl)amino)methyl)-5-azaspiro[2.4]heptan-5-yl)methanone]
1.26 nM	15.8 nM			Cc1ccc(-n2ccc(C)n2)c(C(=O)N2CC3(CC3)C[C@H]2CNc2ccc(C(F)(F)F)cn2)n1 [Compound 3j, (S)-(6-methyl-3-(3-methyl-1H-pyrazol-1-yl)pyridin-2-yl)(6-(((5-(trifluoromethyl)pyridin-2-yl)amino)-methyl)-5-azaspiro[2.4]heptan-5-yl)methanone]
12.6 nM	20 nM			Cc1ccc(-c2ccc(F)c(F)c2)c(C(=O)N2CC3(CC3)C[C@H]2CNc2ccc(C(F)(F)F)cn2)n1 [Compound E11, (S)-(3-(3,4-difluorophenyl)-6-methylpyridin-2-yl)(6-(((5-(trifluoromethyl)pyridin-2-yl)amino)methyl)-5-azaspiro[2.4]heptan-5-yl)methanone]
0.631 nM	25.1 nM			Cc1ccc(-c2ncccn2)c(C(=O)N2CC3(CC3)C[C@H]2CNc2nc3ccccc3o2)n1 [Compound E9, (S)-(6-((benzo[d]oxazol-2-ylamino)methyl)-5-azaspiro[2.4]heptan-5-yl)(6-methyl-3-(pyrimidin-2-yl)pyridin-2-yl)methanone]
25.1 nM	7.94 nM			Cc1ccc(OCc2cccc(F)c2F)c(C(=O)N2CC3(CC3)C[C@H]2CNc2ccc(C(F)(F)F)cn2)n1 [Compound 3l, (S)-(3-((2,3-difluorobenzyl)oxy)-6-methylpyridin-2-yl)(6-(((5-(trifluoromethyl)pyridin-2-yl)amino)methyl)-5-azaspiro[2.4]heptan-5-yl)methanone]
20 nM	31.6 nM			Cc1ccc(-c2ccc(C#N)cc2)c(C(=O)N2CC3(CC3)C[C@H]2CNc2ccc(C(F)(F)F)cn2)n1 [Compound E8, (S)-4-(6-methyl-2-(6-(((5-(trifluoromethyl)pyridin-2-yl)amino)methyl)-5-azaspiro[2.4]heptane-5-carbonyl)pyridin-3-yl)benzonitrile]

Continued, molecule first:

Compound	Kb [1]	Kb [2]	pKb OX1 [1]	pKb OX2 [2]
Cc1nc(C(=O)N2CC3(CC3)C[C@H]2CNc2nc3ccccc3o2)c(-c2ccccc2)s1 [Compound 2b, (S)-(6-((benzo[d]oxazol-2-ylamino)methyl)-5-azaspiro[2.4]heptan-5-yl)(2-methyl-5-phenylthiazol-4-yl)methanone]	0.794 nM	2.51 nM		
Cc1ccc(-c2ncccn2)c(C(=O)N2CC3(CC3)C[C@H]2CNc2ccc(C(F)(F)F)cn2)c1 [Compound 1o, (S)-(5-methyl-2-(pyrimidin-2-yl)phenyl)(6-(((5-(trifluoromethyl)pyridin-2-yl)amino)methyl)-5-azaspiro[2.4]heptan-5-yl)methanone]	2 nM	251 nM	8.7	6.6
O=C(c1cc(F)ccc1-c1ncccn1)N1CC2(CC2)C[C@H]1CNc1cc(C(F)(F)F)ccn1 [Compound 1k, (S)-(5-fluoro-2-(pyrimidin-2-yl)phenyl)(6-(((4-(trifluoromethyl)pyridin-2-yl)amino)methyl)-5-azaspiro[2.4]heptan-5-yl)methanone]	50.1 nM	7.94 nM		
O=C(c1c(F)cccc1-c1ncccn1)N1CC2(CC2)C[C@H]1CNc1ncc(C(F)(F)F)cc1F [Compound 1g, (S)-(6-(((3-fluoro-5-(trifluoromethyl)pyridin-2-yl)amino)methyl)-5-azaspiro[2.4]heptan-5-yl)(2-fluoro-6-(pyrimidin-2-yl)phenyl)methanone]	1.26 nM	39.8 nM		
Cc1ccc(-c2ncccn2)c(C(=O)N2CC3(CC3)C[C@H]2CNc2ncc(C(F)(F)F)cc2F)n1 [Compound 3d, (S)-(6-(((3-fluoro-5-(trifluoromethyl)pyridin-2-yl)amino)methyl)-5-azaspiro[2.4]heptan-5-yl)(6-methyl-3-(pyrimidin-2-yl)pyridin-2-yl)methanone]	3.98 nM	10 nM		
Cc1nc(C(=O)N2CC3(CC3)C[C@H]2CNc2nc3ccc(F)cc3s2)c(-c2ccccc2)s1 [Compound 2h, (S)-(6-(((6-fluorobenzo[d]thiazol-2-yl)amino)methyl)-5-azaspiro[2.4]heptan-5-yl)(2-methyl-5-phenylthiazol-4-yl)methanone]	3.98 nM	6.31 nM		
Cc1ccc(-c2ncccn2)c(C(=O)N2CC3(CC3)C[C@H]2CNc2cc(C(F)(F)F)ccn2)c1 [Compound 1n, (S)-(5-methyl-2-(pyrimidin-2-yl)phenyl)(6-(((4-(trifluoromethyl)pyridin-2-yl)amino)methyl)-5-azaspiro[2.4]heptan-5-yl)methanone]	50.1 nM	15.8 nM	7.3	7.8
O=C(c1cc(Br)ccc1-c1ncccn1)N1CC2(CC2)C[C@H]1CNc1ccc(C(F)(F)F)cn1 [Compound 1e, (S)-(5-bromo-2-(pyrimidin-2-yl)phenyl)(6-(((5-(trifluoromethyl)pyridin-2-yl)amino)methyl)-5-azaspiro[2.4]heptan-5-yl)methanone]	3.16 nM	20 nM		
